{"source": "patent US20120283335A1", "about": "“Analogs of Propofol, Preparation Thereof and Use as Anesthetics” (priority 2008, published 2012)", "key": {"Male Sprague Dawley rats": {"test_system": "Male Sprague Dawley rats", "assay": "Test A. Loss of Righting Reflex Assay with dose escalation to maximum tolerated dose", "format": "in vivo", "conditions": "rat; for Safety compared with propofol: doses escalated; for Potency compared with propofol: equal dose (7 mg/kg), 7 mg/kg", "description": "The ability of a compound of the invention to produce an anesthetic effect (i.e. efficacy) can be determined using standard pharmacological models that are well known to the art. […] The potency of such a compound was compared to the potency of propofol using this assay.\nThe safety of a compound of the invention can be determined using standard pharmacological models that are well known to the art. […] The safety of such a compound was compared to that of propofol using this assay.\nMale Sprague Dawley rats were restrained in a holder, and test compound or propofol was injected in the tail vein (based on milligrams (mg) compound per kilogram (kg) body weight). Following administration, the rats were placed in a dorsal recumbent position on a heating blanket. The time to onset for the loss of the Righting Reflex (RR-ability of rat to right itself) was recorded, as was the duration of the loss of the RR. Doses were escalated until the maximum tolerated doses were achieved."}, "pig": {"test_system": "pig", "assay": "Test B. Anesthetized Pig Model (hemodynamic profile)", "format": "in vivo", "conditions": "20 minute intravenous infusion, data in FIGS. 1 and 2", "experimental": "The hemodynamic profile of a compound of the invention can be determined using standard pharmacological models that are well known to the art. The hemodynamic and anesthetic profiles of a compound of the invention can be evaluated simultaneously using an anesthetized pig model (as described in Test B below).\nThe anesthetic induction was performed using a modification of a technique described by Ko et al (Ko et al., Lab Anim Sci 1993; 43: 476-80) for swine (Telazol, xylazine and ketamine given as an intramuscular injection). The minimal effective dose for induction and tracheal intubation was used. […]\nA compound of the invention or propofol was administered intravenously by a 20 minute infusion after the stabilization period through the peripheral IV catheter. […] Blood samples (1 mL each) were collected at pre-dose and at 2, 4, 6, 8, 10, 12, 15, 20, 22, […], 25, 35, 50, 65 and 80 minutes after the start of the first infusion for pharmacokinetic purposes; EEG were recorded continuously as the primary pharmacodynamic endpoint. […]\nThe EEG signal was fed to a BIS analyzer (Aspect Medical) which provided continuous output of processed EEG data. The output consisted of a “BIS” number calculated by a proprietary algorithm that ranges between 100 (fully conscious) and 0 (isoelectric) and indicated brain activity.\nHemodynamic data were recorded and plotted to assess trends over the drug exposure period. […]"}}, "note": "Entries after “also recorded” stand apart in the source; their conditions may differ."}
{"smiles": "CC(C)c1cccc(C(C)C(C)C)c1O", "note": "(racemic) [2-(3-methyl)secbutyl-6-isopropylphenol]", "values": [{"measurement": "Safety compared with propofol", "setting": "Male Sprague Dawley rats", "value": "greater safety compared to propofol; also recorded: improved safety"}, {"measurement": "Potency compared with propofol", "setting": "Male Sprague Dawley rats", "value": "at least equivalent, if not greater potency than propofol; also recorded: at least equivalent potency"}, {"measurement": "Outcome: deaths", "setting": "Male Sprague Dawley rats; tail vein bolus dose 7 mg/kg", "value": "0/6 deaths"}, {"measurement": "Outcome: minutes of sleep post bolus dose", "setting": "Male Sprague Dawley rats; tail vein bolus dose 7 mg/kg", "value": "7.5 minutes of sleep post"}, {"measurement": "Outcome: deaths", "setting": "Male Sprague Dawley rats; tail vein bolus dose 14 mg/kg", "value": "0/6 deaths"}, {"measurement": "Outcome: deaths", "setting": "Male Sprague Dawley rats; tail vein bolus dose 21 mg/kg", "value": "0/6 deaths"}]}
{"smiles": "CCC(CC)c1cccc(C(C)C)c1O", "note": "[2-(1-ethylpropyl)-6-isopropylphenol]", "values": [{"measurement": "Hemodynamic properties compared with propofol", "setting": "pig", "value": "improved hemodynamic properties"}, {"measurement": "Safety compared with propofol", "setting": "Male Sprague Dawley rats", "value": "greater safety compared to propofol; also recorded: improved safety"}, {"measurement": "Potency compared with propofol", "setting": "Male Sprague Dawley rats", "value": "at least equivalent potency"}, {"measurement": "Potency compared with propofol", "setting": "Male Sprague Dawley rats; listed as 2-(1-Ethylpropyl)-6-isopropylphenol", "value": "at least equivalent, if not greater, potency than propofol"}, {"measurement": "Outcome: deaths", "setting": "Male Sprague Dawley rats; tail vein bolus dose 7 mg/kg", "value": "0/6 deaths"}, {"measurement": "Outcome: minutes of sleep post bolus dose", "setting": "Male Sprague Dawley rats; tail vein bolus dose 7 mg/kg", "value": "9.9 minutes of sleep post"}, {"measurement": "Outcome: deaths", "setting": "Male Sprague Dawley rats; tail vein bolus dose 14 mg/kg", "value": "0/6 deaths"}, {"measurement": "Outcome: deaths", "setting": "Male Sprague Dawley rats; tail vein bolus dose 21 mg/kg", "value": "0/6 deaths"}]}
{"smiles": "CC(C)c1cccc(C(C)C)c1O", "note": "[Propofol, 2,6-diisopropylphenol]", "values": [{"measurement": "Outcome: deaths", "setting": "Male Sprague Dawley rats; tail vein bolus dose 7 mg/kg", "value": "0/10 deaths"}, {"measurement": "Outcome: minutes of sleep post bolus dose", "setting": "Male Sprague Dawley rats; tail vein bolus dose 7 mg/kg", "value": "7.1 minutes of sleep post"}, {"measurement": "Outcome: deaths", "setting": "Male Sprague Dawley rats; tail vein bolus dose 14 mg/kg", "value": "6/10 deaths"}, {"measurement": "Outcome: deaths", "setting": "Male Sprague Dawley rats; tail vein bolus dose 21 mg/kg", "value": "4/6 deaths"}]}
